From PubChem BioAssay (NCI)
Several values for one entry are separate records, joined by “and”; a condition that tells them apart may be missing. Equal entries are not always repeated.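 All cell lines were grown in 96-well plates and treated with compound for 48 hours. Abbreviation: GI50, concentration required for 50% inhibition of growth. The concentration for full growth arrest is given as TGI.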

Assays:
Test in all cases: inhibition of tumour cell growth, NCI panel, 48 h
U251 CNS = tested on: U251 CNS
SR leukemia = tested on: SR leukemia
ACHN renal = tested on: ACHN renal
KM12 colon = tested on: KM12 colon
NCI/ADR-RES ovarian = tested on: NCI/ADR-RES ovarian
M14 melanoma = tested on: M14 melanoma
HL-60(TB) leukemia = tested on: HL-60(TB) leukemia
BT-549 breast = tested on: BT-549 breast
RPMI-8226 leukemia = tested on: RPMI-8226 leukemia
OVCAR-4 ovarian = tested on: OVCAR-4 ovarian

Row | Compound | TGI (U251 CNS) | TGI (SR leukemia) [µM] | TGI (ACHN renal) [µM] | TGI (KM12 colon) [µM] | TGI (NCI/ADR-RES ovarian) [µM] | TGI (M14 melanoma) [µM] | TGI (HL-60(TB) leukemia) | TGI (BT-549 breast) [µM] | TGI (RPMI-8226 leukemia) [µM] | GI50 (OVCAR-4 ovarian) | TGI (OVCAR-4 ovarian) [µM] | GI50 (RPMI-8226 leukemia) [µM]
1 | CN1C(=O)N(C)C2(CCN(CCCCCCF)CC2)C1=O | > 100 µM | > 100 | > 100 | > 100 | > 100 | > 100 | > 100 µM | > 100 | > 100 |  |  | 
2 | CCCCCCCCCCSCC(CO)NC(=O)/C=C/c1c(C)[nH]c(=O)[nH]c1=O (stereo not drawn) | 3.7 µM and 10.7 µM |  |  | > 50 | > 50 |  | > 35.2 µM and 6.35 µM |  | > 50 | 0.912 µM and 0.192 µM | 4.01 | 19.7
3 | COP(C)(=O)C(Cc1c[nH]c2ccccc12)NC(=O)OCc1ccccc1 (stereo not drawn) | > 100 µM |  | > 100 | > 100 | > 100 | > 100 | > 100 µM | > 100 | > 100 |  | > 100 | 
4 | COc1ccc(C2C(Cl)C(=O)N2NC(=O)Cc2ccccc2)cc1OC (stereo not drawn) | > 100 µM | > 100 | > 100 | > 100 |  | > 100 | > 100 µM |  | > 100 |  | > 100 | 
5 | NCCCC[C@H](N)C(=O)Nc1ccc(-c2nc3ccccc3s2)cc1Cl | 13.7 µM |  | 29.3 | 7.81 | 51.8 | 13.8 |  | > 42.2 |  |  |  | 
6 | CCN(CC)CCNc1ccc2ncn3c4cc(=O)ccc4c(O)c1c23 | 6.59 µM | 9.75 | 10.6 | 22.1 |  | 14.4 | 11.9 µM |  | 9.97 |  | 13.5 | 
7 | CN1B(c2ccccc2)N(C)C(=O)N(C)C1=O | > 100 µM |  | > 100 | > 100 | > 100 | > 100 | > 100 µM | > 100 | > 100 |  |  | 
8 | Cc1cc(C)c(N=Nc2c(O)c(S(=O)(=O)O)cc3cc(S(=O)(=O)O)ccc23)cc1C | > 100 µM |  | > 100 | > 100 | > 100 | > 100 |  | > 100 | > 100 |  | > 100 | 
9 | Cc1cc(O)c(C(C)C)cc1N=Cc1ccccc1O | 14.6 µM |  | 23.9 | 14 | > 67 | 31.4 | 1.89 µM | 22 |  |  | 9.66 | 
10 | CC(/C=N/NC1=NCCCN1)=N\NC1=NCCCN1 | > 100 µM | > 100 | > 100 | > 100 | > 100 | > 100 |  | > 100 | > 100 |  | > 100 | 
11 | O=[N+]([O-])c1cc(Cl)ccc1S(=O)(=O)N1CCCc2cc(Cl)ccc21 |  |  | > 100 | > 100 | > 100 | > 100 |  | > 100 | > 100 |  | > 100 | 
12 | CC(=O)O[C@H]1CC[C@H]2[C@@H]3CCC(C(C)=O)[C@H](C(=O)O)[C@H]3CC[C@]12C (stereo partly drawn) | > 100 µM | > 100 |  | > 100 | > 100 | > 100 | > 100 µM | > 100 | > 100 |  | > 100 | 
13 | O=C1C[C@H](c2ccc(O)c(O)c2)Oc2cc(O)cc(O)c21 | > 100 µM | > 100 | > 100 | > 100 |  | > 100 | > 100 µM |  | > 100 |  | > 100 | 
14 | CC(=O)OCC1OC(N2C(S)=C(C#N)C(c3ccco3)C(C(C)=O)=C2c2ccccc2)C(OC(C)=O)C(OC(C)=O)C1OC(C)=O (stereo not drawn) | > 100 µM | > 100 |  | > 100 | > 100 | > 100 | > 100 µM | > 100 | > 100 |  | 44.8 | 
15 | COc1ccccc1N=C1SCCN1C(=S)Nc1ccc(S(=O)(=O)/N=C/N(C)C)cc1 | > 100 µM |  | > 100 | > 100 | > 100 | > 100 | > 100 µM | 49.8 | 68.4 |  | > 100 | 
16 | O=C1N[C@@H](COc2ccc(C=Nc3ccc(CCc4ccc(N=Cc5ccc(OC[C@@H]6COC(=O)N6)cc5)cc4)cc3)cc2)CO1 | > 100 µM | > 100 | > 100 | > 100 | > 100 | > 100 | > 100 µM |  | > 100 |  | > 100 | 
17 | O=C(O)CC(O)(C(=O)O)C(O)C(=O)O (stereo not drawn) | > 1000 µM |  | > 1000 | > 1000 | > 1000 | > 1000 | > 1000 µM | > 1000 | > 1000 |  | > 1000 | 
18 | CC(=O)n1ccc2c(Cl)ncnc21 | > 100 µM | > 100 | > 100 | > 100 |  | > 100 | > 100 µM |  | > 100 |  |  | 
19 | COc1cccc(-c2cc(=O)c3cc(Cl)cnc3[nH]2)c1 | 23.5 µM | 20.4 | 55.4 | 44.2 | 0.783 | > 9.71 |  | > 100 | > 62.1 |  | 76.3 | 
20 | COC(=O)C1C2CC3C(OC(=O)C31)C2OC(=O)[C@](OC)(c1ccccc1)C(F)(F)F (stereo partly drawn) | > 100 µM | > 100 | > 100 | > 100 |  | > 100 | > 100 µM |  | > 100 |  | > 100 | 
21 | OC(c1ccccc1)(c1cccnc1)C(O)(c1ccccc1)c1cccnc1 (stereo not drawn) | > 100 µM |  | > 100 | > 100 | > 100 | > 100 | > 100 µM | > 100 | > 100 |  |  | 
22 | O=C1NC2(C=Cc3c(ccc4ccccc34)O2)Oc2ccccc21 (stereo not drawn) | 62.5 µM | 34.5 | 77.7 | 41.1 |  | > 100 | 27.4 µM |  | 47.6 |  | > 100 | 
23 | CN(C)CCNc1nc2c(no[n+]2[O-])c2ccccc12 | 83.8 µM | 74.8 | 40.4 | 58.9 | 58.7 | 30.3 |  |  | > 100 |  | 61.1 | 
24 | CCN(CC)CCC(=O)c1ccc(Oc2ccc(F)cc2)cc1 | 31.1 µM | > 100 | 32.4 | 36.6 | 83.4 | 34.9 |  | 32.8 | 56.4 |  | > 100 | 
25 | CC(C)(C)OC(=O)N1N=NC2C3OC(CC3=O)C21 (stereo not drawn) | > 100 µM | > 100 | > 100 |  |  | > 100 |  |  | > 100 |  |  | 
